The values that follow come from PMC5937995 (Bioorganic & medicinal chemistry, 2018).

Each structure is given as a SMILES string. Residues, ends and D or L forms follow the SMILES beside them.

The subject of one series is human platelets. The settings on record: cited from earlier work; for IC50: read-out: potency in P-selectin assay, human platelets.
The conditions of series [1]: cited from earlier work.
Series [2] concerns the target T1, PAR1 (Homo sapiens, UniProt P25116).
T1 sequence (P25116 22-425): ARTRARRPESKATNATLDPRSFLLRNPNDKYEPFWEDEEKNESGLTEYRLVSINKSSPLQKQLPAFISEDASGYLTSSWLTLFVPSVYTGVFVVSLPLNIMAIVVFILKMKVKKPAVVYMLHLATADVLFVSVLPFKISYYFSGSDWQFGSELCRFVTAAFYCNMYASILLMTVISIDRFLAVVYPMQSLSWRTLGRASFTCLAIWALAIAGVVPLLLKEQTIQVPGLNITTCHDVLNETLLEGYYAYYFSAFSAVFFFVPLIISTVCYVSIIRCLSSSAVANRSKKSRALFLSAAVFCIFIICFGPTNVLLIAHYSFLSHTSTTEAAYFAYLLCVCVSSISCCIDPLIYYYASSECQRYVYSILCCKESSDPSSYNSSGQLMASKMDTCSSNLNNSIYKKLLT
As to the kind of experiment: PAR1.

A short description of a further series: Aqueous solubility. Type of series: physicochemical. Conditions: turbid suspensions observed at high concentrations.
In series [3] the test system is PAR1. The settings on record: platelet membranes; cited from earlier work.
The test system of the next series is cardiac infarct size. The settings on record: murine myocardial ischemia-reperfusion injury; cited from earlier work.
Series [4] relates to PAR1. Conditions: cited from earlier work.
Where [5] appears, read: 5 μM TFLLRN-NH2, EA.hy926 cells.

In the case of `CC(C)CC(=O)Nc1cccc(NC(=O)c2ccccc2Br)c1` [CJD-125], the “potency relative to ML161 in platelet P-selectin assay” value in the series with human platelets is given as “equipotency”. Also, in series [1], the “plasma stability relative to ML161” value was “improved plasma stability”. Further, the “activity in PAR1 iCa2+ assay (in words)” value at PAR1 [2] (setting [5]) was “less potent than ML161 and did not give a good concentration-response”.
With `CCCC(=O)Nc1cccc(NC(=O)c2ccccc2N=[N+]=[N-])c1` [DG-5, 2-Azido-N-(3-butyramidophenyl)benzamide], the “activity in PAR1 iCa2+ assay (in words)” value at PAR1 [2] (setting [5]) is recorded as “only modest activity”.
On to `C#CCCC(=O)NCC[C@H](NC(=O)[C@H](Cc1ccc(F)c(F)c1)NC(=O)Nc1ccc2c(CN3CCCC3)nn(Cc3c(Cl)cccc3Cl)c2c1)C(=O)NCc1ccccc1` [DG-207, N-((S)-4-(Benzylamino)-3-((S)-2-(3-(1-(2,6-dichlorobenzyl)-3-(pyrrolidin-1-ylmethyl)-1H-indazol-6-yl)ureido)-3-(3,4-difluorophenyl)propanamido)-4-oxobutyl)pent-4-ynamide], for which the “fold less potent than RWJ-58259” value at PAR1 [2] (setting [5]) came to 15 fold.
`CCCCC(=O)Nc1cccc(NC(=O)c2ccccc2Br)c1` [EMG-23, 2-Bromo-N-(3-pentanamidophenyl)benzamide]: the “activity in PAR1 iCa2+ assay (in words)” value on PAR1 [2] (setting [5]) is listed as “poorly active”.
On to `CCCC(=O)Nc1cccc(NC(=O)c2ccccc2Br)c1` [ML161], for which the aqueous solubility entry in “Aqueous solubility” is on record as “low aqueous solubility”. In addition, in the series with human platelets (platelet P-selectin assay), the “mode of inhibition of SFLLRN-NH2” value is “non-competitive inhibitor”. Also, the IC50 in the series with human platelets was 260 nM. In addition, the “inhibition of [3H]TRAP binding” value in the series on PAR1 [3] was “does not significantly inhibit binding”. The cardiac infarct size entry in the series on cardiac infarct size was “significantly decreased”.
Turning to `C#CCCC(=O)Nc1cccc(NC(=O)c2ccccc2Br)c1` [RR-10, 2-Bromo-N-(3-(pent-4-ynamido)phenyl)benzamide], the “activity in PAR1 iCa2+ assay (in words)” value on PAR1 [2] (setting [5]) is “only modest inhibition of PAR1”.
Turning to `CCCCNc1cccc(NC(=O)c2ccccc2Br)c1` [RR-90], in the series on human platelets, the IC50 was 340 nM.
As to `NCC[C@H](NC(=O)[C@H](Cc1ccc(F)c(F)c1)NC(=O)Nc1ccc2c(CN3CCCC3)cn(Cc3c(Cl)cccc3Cl)c2c1)C(=O)NCc1ccccc1` [RWJ-56110], in the series on PAR1 [4], the “mode of inhibition of radiolabeled PAR1 activating peptide binding” value is on record as “competitive inhibitor”.
As to `CC(C)C[C@H](NC(=O)[C@H](CC(C)C)NC(=O)[C@H](Cc1ccccc1)NC(=O)[C@@H](N)[C@@H](C)O)C(=O)N[C@@H](CCCNC(=N)N)C(=O)N[C@@H](CC(N)=O)C(N)=O` [TFLLRN-NH2, reference compound] (H-TFLLRN-NH2), the EC50 on PAR1 [2] was 4.8 µM.
Consider `CCOC(=O)N[C@@H]1CC[C@@H]2[C@@H](C1)C[C@H]1C(=O)O[C@H](C)[C@H]1[C@H]2/C=C/c1ccc(-c2cccc(F)c2)cn1` [Vorapaxar, reference compound], for which the aqueous solubility entry in the series “Aqueous solubility” is “low aqueous solubility”. On PAR1 [2], this compound displayed an IC50 of 32 nM. Further, at PAR1 [2] (in presence of 5 μM TFLLRN-NH2, EA.hy926 cells), the “% Inhibition” value was found to be 95%.
